Measured values as given in patent US11453640B2, “Small molecules for disrupting the super elongation complex and inhibiting transcription elongation for cancer therapy” (NORTHWESTERN UNIVERSITY, priority 2018, dated 2022).

How the values were obtained:
MYC = assay: mRNA-seq of 293T cells after 24 hr treatment; format: cell-based, human
Source text: FIG. 6. SEC disruption targets MYC and MYC target genes. (A-B) Venn diagram of deregulated genes in 293T cells by KL-1 and KL-2. […] (C) Heat map showing the expression changes in response to SEC inhibitors, with differentially expressed canonical MYC targets, RNA splicing factors, and core SNRP assembly genes highlighted. […] Each cluster is represented by different colors and a circle node denotes each enriched term. (E) MA plots of RNA splicing and Hallmark MYC target genes in KL-2 treated, AFF1 and AFF4 co-depletion, and ELL2-depleted cells. […] The MYC genes, the PRMT5 gene, and genes encoding SEC components are denoted as red squares. (F) Western analysis of MYC protein levels in the MYC lowly expressed small cell lung cancer cell line […] and MYC-amplified small cell lung cancer cell line H2171. […] The SEC and MYC peaks were determined by MACS with a p-value cutoff at 1E-5. […] Both cell lines were treated with increasing concentrations of KL-1 and KL-2 for 3 days and the cell proliferation was measured with CellTiter-Glo luminescent cell viability assay (Promega) (n=3-6).
RNA-seq Analysis. […] Exonic reads were assigned to specific genes from Ensembl release 75 using Bioconductor package GenomicRanges countOverlaps. […] The total number of uniquely mapped reads was provided to edgeR for the calcNormFactors normalization rather than the default column sums. […]

MDA231-LM2 cells = assay: Annexin V apoptosis in MDA231-LM2 cells; format: cell-based; conditions: 24 hr
Experimental: FIG. 14, related to FIG. 7. SEC disruptors delay tumor progression and improve survival of MDA231-LM2 tumor mice. (A) KL-1 and KL-2 inhibit the colony formation of MDA231-LM2 cells in vitro. 5×10^3 MDA231-LM2 cells were seeded in 6-well plates and treated with KL-1 or KL-2 at the indicated doses for 5 days. Crystal violet staining was performed to stain the colonies. (B) KL-1 and KL-2 induce apoptosis in MDA231-LM2 cells. Bar graph depiction of Annexin V positive MDA231-LM2 cells after 24 hr of KL-1 and KL-2 treatments at the indicated concentrations. Data are represented as Mean+/−SD. […] Each individual line indicates the weights of each mouse during toxicity test.

COc1cccc(C(=O)CC(=O)C(=O)Nc2cc(Cl)ccc2C)c1 [KL-1, N-(5-chloro-2-methylphenyl)-4-oxo-4-(3-methoxyphenyl)-2-oxobutanamide]
MYC expression (MYC): led to decreased MYC expression | apoptosis (Annexin V staining) (MDA231-LM2 cells): increase apoptosis
